Experimental data from patent US20180153807A1, “COMPOSITIONS AND METHODS FOR TREATING MYCOBACTERIA INFECTIONS AND LUNG DISEASE” (priority 2015, published 2018).
Like-named read-outs stand apart in the source and are kept apart here.

Assays:
[1] = system: Mycobacterium avium complex (MAC) 104 biofilm; assay: Cochleate treatment of Mycobacteria biofilm on polarized A549 cells in transwell; assay type: cell-based; details: delivered daily to bottom well, MAC 104 biofilm on A549 cells
Experimental: A549 alveolar epithelial cells were cultured in a transwell system. A549 cells became polarized after 6 days and integrity. Bacteria were seeded on the top (apical surface) of the cells. Seven days were allowed for biofilm formation.
Mycobacterium avium complex (MAC) 104 (10^5 bacteria) infection inoculum.
0.1 ml of the different treatments were delivered to the bottom well daily. The basolateral surface (bottom) of the cells were immersed in the tissue culture medium present in the bottom well. Three replicas per experimental group were tested in two different experiments.
Biofilm and epithelial cells were lysed and diluted and plated onto 7H10.

[2] = rats; cited from earlier work
[3] = system: Mycobacterium avium complex (MAC)
Experimental: C57 BL/6 mice were infected with 8.3×10^6 of Mycobacterium avium complex (MAC) intranasally and the infection was allowed to establish for 7 days. Then baseline bacterial load was determined in 10 mice and treatment protocols were initiated. Mice were treated daily for 4 weeks (orally or with intraperitonal injection of free amikacin). Mice were harvested and lung and spleens were removed, homogenized and plated to determine the bacterial load. Experimental groups had 12 mice each.

Compound: NCC[C@H](O)C(=O)N[C@@H]1C[C@H](N)[C@@H](O[C@H]2O[C@H](CN)[C@@H](O)[C@H](O)[C@H]2O)[C@H](O)[C@H]1O[C@H]1O[C@H](CO)[C@@H](O)[C@H](N)[C@H]1O [Free amikacin, Amikacin]
- CFU/bacteria, 14 days ([1]; 20 μg/ml): 9.1 ± 0.4 × 10^5 CFU
- CFU/bacteria, 14 days ([1]; 100 μg/ml): 3.2 ± 0.3 × 10^5 CFU
- published NOAEL for injected (intravenous) amikacin [2]: 100 mg/kg
- bacterial load ([3]; IP 100 mg/Kg, daily for 4 weeks, 100 mg/kg): 5.6 ± 0.4 × 10^3^(2)(3) CFU
- bacterial load ([3]; IP 100 mg/Kg, daily for 4 weeks, listed as AMK, 100 mg/kg): 5.6×10^3 CFU
- kind of effect observed (in words) ([3]; daily for 4 weeks): bactericidal
- toxicity, histopathology including kidneys (in words) ([3]; mouse, in vivo): no toxicity was observed
- bacterial load ([3]; oral, daily for 4 weeks, dose not given): 2.2 ± 0.5 × 10^5^(1) CFU
